Measurements reported in patent publication US5981704A, “Kainate-binding, human CNS receptors of the EAA2 family” (Allelix Biopharmaceutical, priority 1997, dated 1999).

Tests used:
human EAA2a receptor [1] = molecular target: T1, human EAA2a receptor (Homo sapiens, UniProt Q16478); test: [3H]-kainate binding assay (Scatchard analysis and displacement) on membranes of transfected COS-1 cells; details: for rank order of potency in displacement of [3H]-labelled kainate binding: FIG. 6
T1 construct: This modification permitted the full length cDNA insert to be released as a 3.7 kb NotI/NotI fragment; expressed in transfected cells; host or cells: COS-1 (ATCC CRL 1650), transient, plasmid pcDNA1/humEAA2a; membranes
T1 sequence (Q16478 15-980): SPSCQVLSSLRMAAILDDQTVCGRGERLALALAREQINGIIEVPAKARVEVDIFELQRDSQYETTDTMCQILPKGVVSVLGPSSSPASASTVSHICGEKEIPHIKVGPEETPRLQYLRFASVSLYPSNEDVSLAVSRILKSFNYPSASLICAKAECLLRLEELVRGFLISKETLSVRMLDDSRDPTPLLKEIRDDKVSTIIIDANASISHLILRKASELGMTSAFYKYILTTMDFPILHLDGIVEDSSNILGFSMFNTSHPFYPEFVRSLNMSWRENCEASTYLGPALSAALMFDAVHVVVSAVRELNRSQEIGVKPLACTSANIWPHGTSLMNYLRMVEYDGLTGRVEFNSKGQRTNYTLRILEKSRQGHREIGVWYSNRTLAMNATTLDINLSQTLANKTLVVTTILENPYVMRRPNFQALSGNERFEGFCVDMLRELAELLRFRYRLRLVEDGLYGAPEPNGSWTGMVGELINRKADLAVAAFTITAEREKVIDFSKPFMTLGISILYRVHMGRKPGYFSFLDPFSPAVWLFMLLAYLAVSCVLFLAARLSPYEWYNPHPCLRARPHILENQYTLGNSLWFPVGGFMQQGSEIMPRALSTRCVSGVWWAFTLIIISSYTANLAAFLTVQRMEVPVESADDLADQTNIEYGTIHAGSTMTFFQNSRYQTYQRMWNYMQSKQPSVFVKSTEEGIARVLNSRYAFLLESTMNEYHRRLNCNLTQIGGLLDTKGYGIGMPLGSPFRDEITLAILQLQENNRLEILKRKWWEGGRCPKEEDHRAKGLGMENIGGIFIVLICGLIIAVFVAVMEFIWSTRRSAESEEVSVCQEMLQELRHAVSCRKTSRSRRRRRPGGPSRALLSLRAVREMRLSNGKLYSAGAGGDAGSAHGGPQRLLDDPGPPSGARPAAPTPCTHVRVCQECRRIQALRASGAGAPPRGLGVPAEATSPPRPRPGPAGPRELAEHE
Method: (§1) Transfected cells in the frozen state were resuspended in ice-cold distilled water using a hand homogenizer and centrifuged for 20 minutes at 50,000 g. The supernatant was discarded and the membrane pellet stored frozen at -70° C.
(§2) COS cell membrane pellets were suspended in ice cold 50 mM Tris-HCl (pH 7.55, 5C) and placed inside Spectrapor 7 (EDTA-treated, sulfur-fee) dialysis tubing. The suspension was placed in 4 liters of ice cold 50 mM Tris-HCl (pH 7.55, 5C) and dialyzed for 16-24 hours at 5C in order to remove endogenous glutamate that would compete for binding. The tissue suspension was recovered from the tubing along with a small volume of buffer used to rinse the tubing. This resultant membrane preparation was used as tissue source for binding experiments described below. Proteins were determined using the Pierce Reagent with BSA as standard.
Binding assays were then performed, using an amount of COS-derived membrane equivalent to from 25-100 ug as judged by protein determination and selected radiolabelled ligand. In particular, glutamate binding assays entailed formation of an incubation mixture consisting of 25-100 ug of tissue protein, and [3.4-3H]L-glutamic acid (47.3 Ci/mmole, 10 nM final) in 50 mM Tris-HCl (pH 7.55, 5C) in 1 ml final volume. Non-specific binding was in the presence of 1 mM L-glutamate. Samples were incubated on ice for 60 minutes in plastic minivials. Bound and free ligand were separated by centrifugation for 10 minutes at 50,000 g (4° C.). Tissue pellets were washed superficially with 2×6 ml of ice cold incubation buffer. Pellets were solubilized and counted in 5 ml of Beckman Ready Protein Scintillation cocktail.
For kainate binding assays, incubation mixtures consisted of 25-100 μg tissue protein and [vinylidene-3H] kainic acid (58 Ci/mmole, 5 nM final) in the cold incubation buffer, 1 ml final volume. Non-specific binding was in the presence of 1 mM L-glutamate. Samples were incubated as for the glutamate binding assays, and bound and free ligand were separated by rapid filtration using a Brandel cell harvester and GF/B filters pro-soaked in ice-cold 0.3% polyethyleneimine. Filters were washed twice in 6 ml of the cold incubation buffer, then placed in scintillation vials with 5 ml of Beckman Ready-Safe scintillation cocktail for counting.

human EAA2a receptor [2] = molecular target: T1, human EAA2a receptor; test: [3H]-glutamate binding assay on membranes of transfected COS-1 cells; details: [3H]-glutamate at 10 nM; non-specific binding with 1 mM L-glutamate
Method: as §1, §2
Binding assays were then performed, using an amount of COS-derived membrane equivalent to from 25-100 ug as judged by protein determination and selected radiolabelled ligand. In particular, glutamate binding assays entailed formation of an incubation mixture consisting of 25-100 ug of tissue protein, and [3.4-3H]L-glutamic acid (47.3 Ci/mmole, 10 nM final) in 50 mM Tris-HCl (pH 7.55, 5C) in 1 ml final volume. […] Pellets were solubilized and counted in 5 ml of Beckman Ready Protein Scintillation cocktail.

In the case of `N[C@@]1(C(=O)O)CC[C@@H](C(=O)O)C1` [1S,3R-ACPD], the displacement of kainate (human EAA2a receptor [1]; concentrations up to 100 uM) is reported as “No displacement”.

In the case of `N#Cc1cc2[nH]c(=O)c(=O)[nH]c2cc1[N+](=O)[O-]` [CNQX], the “rank order of potency in displacement of [3H]-labelled kainate binding” value (“rank order of potency” for short) (human EAA2a receptor [1]) is reported as “kainate>domoate>quisqualate>glutamate>DNQX>dihydrokainate>CNQX>AMPA”.

In the case of `O=c1[nH]c2cc([N+](=O)[O-])c([N+](=O)[O-])cc2[nH]c1=O` [DNQX], the “rank order of potency” value (human EAA2a receptor [1]) is reported as “kainate>domoate>quisqualate>glutamate>DNQX>dihydrokainate>CNQX>AMPA”.

With `CC(C)[C@H]1CN[C@H](C(=O)O)[C@H]1CC(=O)O` [dihydrokainate] the “rank order of potency” value (human EAA2a receptor [1]) was “kainate>domoate>quisqualate>glutamate>DNQX>dihydrokainate>CNQX>AMPA”.

`C/C(=C/C=C/[C@@H](C)C(=O)O)[C@H]1CN[C@H](C(=O)O)[C@H]1CC(=O)O` [domoate] was tested, and the “rank order of potency” value (human EAA2a receptor [1]) was “kainate>domoate>quisqualate>glutamate>DNQX>dihydrokainate>CNQX>AMPA”.

In the case of `N[C@@H](CCC(=O)O)C(=O)O` [glutamate, L-glutamic acid], the “specific binding of labelled ligand” value (human EAA2a receptor [2]) is reported as “specific” and the “rank order of potency” value (human EAA2a receptor [1]) is reported as “kainate>domoate>quisqualate>glutamate>DNQX>dihydrokainate>CNQX>AMPA”.

With `C=C(C)[C@H]1CN[C@H](C(=O)O)[C@H]1CC(=O)O` [kainate, kainic acid] the Kd (human EAA2a receptor [1]) was 2.9 nM, the “rank order of potency” value (human EAA2a receptor [1]) was “kainate>domoate>quisqualate>glutamate>DNQX>dihydrokainate>CNQX>AMPA” and the “maximum binding (Bmax)” value (human EAA2a receptor [1]; Scatchard analysis of [3H]-kainate binding) was 691 fmol/mg protein. The “specific binding of labelled ligand” value (human EAA2a receptor [1]; [3H]-kainate at 5 nM, non-specific binding with 1 mM L-glutamate) was “specific” and the “kainate binding affinity (in words)” value (human EAA2a receptor [1]; nanomolar range) was “high affinity”.

In the case of `N[C@@H](Cn1oc(=O)[nH]c1=O)C(=O)O` [quisqualate], the “rank order of potency” value (human EAA2a receptor [1]) is reported as “kainate>domoate>quisqualate>glutamate>DNQX>dihydrokainate>CNQX>AMPA”.
